In US6998415B2, “Substituted sulfonylphenylheterocycles as cyclooxygenase-2 and 5-lipoxygenase inhibitors” (Pharmacia Corporation, priority 1996, dated 2006):

Tests used:
COX-2 = target: T1, COX-2 (UniProt P35354); assay: Assay for COX-2 activity in vitro (PGE2 ELISA, recombinant enzyme); format: biochemical, human or murine; conditions: recombinant COX-2, arachidonic acid 10 μM, pre-incubation 10–20 minutes
T1 sequence (P35354 1-604): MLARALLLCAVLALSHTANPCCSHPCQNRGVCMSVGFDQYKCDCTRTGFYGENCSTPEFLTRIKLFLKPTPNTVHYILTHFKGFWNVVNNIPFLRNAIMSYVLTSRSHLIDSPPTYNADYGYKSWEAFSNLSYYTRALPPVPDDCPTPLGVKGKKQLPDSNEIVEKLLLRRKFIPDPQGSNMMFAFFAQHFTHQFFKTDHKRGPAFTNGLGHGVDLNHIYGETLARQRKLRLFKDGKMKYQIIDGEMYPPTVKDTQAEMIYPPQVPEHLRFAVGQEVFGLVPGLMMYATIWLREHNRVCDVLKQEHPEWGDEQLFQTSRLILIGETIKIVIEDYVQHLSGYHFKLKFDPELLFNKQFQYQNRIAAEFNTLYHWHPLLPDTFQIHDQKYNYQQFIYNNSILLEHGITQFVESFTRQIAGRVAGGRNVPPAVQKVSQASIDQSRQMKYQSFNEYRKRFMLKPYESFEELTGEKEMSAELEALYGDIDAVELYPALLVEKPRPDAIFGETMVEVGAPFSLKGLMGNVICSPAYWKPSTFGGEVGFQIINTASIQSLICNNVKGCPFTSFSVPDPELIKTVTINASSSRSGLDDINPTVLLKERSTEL
Method: Evaluation of COX-1 and COX-2 Activity in vitro
The COX-2 inhibit on activity of the compounds or this invention illustrated in the Examples was determined by the following methods. a. Preparation of Recombinant COX Baculoviruses
(§1) Recombinant COX-1 and COX-2 were prepared as described by Gierse et al, [J. Biochem., 305, 479–84 (1995)]. A 2.0 kb fragment containing the coding region of either human or murine COX-1 or human or murine COX-2 was cloned into a BamHI site of the baculovirus transfer vector pVL1393 (Invitrogen) to generate the baculovirus transfer vectors for COX-1 and COX-2 in a manner similar to the method of D. R. O'Reilly et al (Baculovirus Expression Vectors: A Laboratory Manual (1992)). Recombinant baculoviruses were isolated by transfecting 4 μg of baculovirus transfer vector DNA into SF9 insect cells (2×10^8) along with 200 ng of linearized baculovirus plasmid DNA by the calcium phosphate method. See M. D. Summers and G. E. Smith, A Manual of Methods for Baculovirus Vectors and Insect Cell Culture Procedures, Texas Agric. Exp. Station Bull. 1555 (1987). Recombinant viruses were purified by three rounds of plaque purification and high titer (10^7–10^8 pfu/ml) stocks of virus were prepared. For large scale production, SF9 insect cells were infected in 10 liter fermentors (0.5×10^6/ml) with the recombinant baculovirus stock such that the multiplicity of infection was 0.1. After 72 hours the cells were centrifuged and the cell pellet homogenized in Tris/Sucrose (50 mM: 25%, pH 8.0) containing 1% 3-[(3-cholamidopropyl)dimethylammonio]-1-propanesulfonate (CHAPS). The homogenate was centrifuged at 10,000×G for 30 minutes, and the resultant supernatant was stored at −80° C. before being assayed for COX activity. […]
(§2) b. Assay for COX-1 and COX-2 Activity
(§3) COX activity was assayed as PGE2 formed/μg protein/time using an ELISA to detect the prostaglandin released. CHAPS-solubilized insect cell membranes containing the appropriate COX enzyme were incubated in a potassium phosphate buffer (50 mM, pH 8.0) containing epinephrine, phenol, and heme with the addition of arachidonic acid (10 μM). Compounds were pre-incubated with the enzyme for 10–20 minutes prior to the addition of arachidonic acid. Any reaction between the arachidonic acid and the enzyme was stopped after ten minutes at 37° C./room temperature by transferring 40 μl of reaction mix into 160 μl ELISA buffer and 25 μM indomethacin. The PGE2 formed was measured by standard ELISA technology (Cayman Chemical).

COX-1 = COX-1 (UniProt P23219); assay: Assay for COX-1 activity in vitro (PGE2 ELISA, recombinant enzyme); format: biochemical, human or murine; conditions: recombinant COX-1, arachidonic acid 10 μM, pre-incubation 10–20 minutes
Method: Evaluation of COX-1 and COX-2 Activity in vitro a. Preparation of Recombinant COX Baculoviruses
as §1, §2, §3

5-lipoxygenase (5-LO) = target: T2, 5-lipoxygenase (5-LO) (Homo sapiens, UniProt P09917); assay: Assay for 5-lipoxygenase activity: calcium ionophore-induced LTB4 production in human whole blood; format: cell-based; conditions: A-23187 (20 μg/ml)-induced LTB4 in human whole blood; mean IC50
T2 construct: calcium ionophore-induced Leukotriene B4 (LTB4) production in human whole blood; endogenous in cells; host or cells: human whole blood (healthy donors), diluted 1:4 in RPMI 1640
T2 sequence (P09917 1-674): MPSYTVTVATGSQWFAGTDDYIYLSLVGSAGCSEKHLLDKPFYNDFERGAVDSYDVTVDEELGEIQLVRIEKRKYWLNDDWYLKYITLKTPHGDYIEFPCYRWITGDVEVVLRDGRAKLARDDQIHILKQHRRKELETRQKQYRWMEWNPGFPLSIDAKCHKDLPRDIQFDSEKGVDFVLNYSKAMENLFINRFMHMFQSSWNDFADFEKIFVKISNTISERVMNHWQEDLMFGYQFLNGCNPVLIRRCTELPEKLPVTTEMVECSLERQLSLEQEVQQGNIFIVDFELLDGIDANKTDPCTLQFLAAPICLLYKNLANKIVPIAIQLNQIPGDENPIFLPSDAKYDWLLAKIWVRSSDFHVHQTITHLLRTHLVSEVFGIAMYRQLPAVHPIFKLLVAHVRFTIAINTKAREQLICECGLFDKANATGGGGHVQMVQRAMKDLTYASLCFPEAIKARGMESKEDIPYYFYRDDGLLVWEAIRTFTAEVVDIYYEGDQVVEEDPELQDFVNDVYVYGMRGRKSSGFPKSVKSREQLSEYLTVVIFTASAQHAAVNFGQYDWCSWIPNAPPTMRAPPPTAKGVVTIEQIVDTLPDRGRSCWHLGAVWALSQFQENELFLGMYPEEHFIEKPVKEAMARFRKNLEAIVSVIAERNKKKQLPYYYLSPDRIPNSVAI
Method: Assay for 5-Lipoxygenase Activity
The 5-lipoxygenase (5-LO) activity of the compounds were determined by the calcium ionophore-induced Leukotriene B4 (LTB4) production in human whole blood. Venous blood was collected from healthy human donors using heparin as an anti-coagulant. Human blood samples (0.2 ml of a 1:4 dilution in RPMI 1640 medium) were incubated in 96-well culture plates for 15 minutes at 37° C. with test compounds dissolved in ethanol (EtOH; final concentration<1%), or vehicle. Typically 7 concentrations of test compounds were examined in duplicate. A-23187 [Sigma] was added to the blood to a final concentration of 20 μg/ml, and the mixtures were incubated for 10 minutes at 37° C. The reaction was stopped by placing the samples on ice. The samples were then centrifuged at 800×g at 4° C. for 10 minutes to pellet the cells, and the supernatants were recovered for quantitation of LTB4 by LISA (Cayman Chemical Co.; sensitivity 3 pg/ml). IC50's were estimated from a four parameter logistic model with two parameters fixed, the minimum (0% inhibition) and maximum (100% inhibition). The IC50 value is the concentration that produces 50% inhibition between the fixed values of the minimum and maximum. Data is reported as the mean IC50 for each compound.

| Compound | IC50 (COX-2) [µM] | IC50 (COX-1) [µM] | IC50 (5-lipoxygenase (5-LO)) [µM] | melting point [°C] |
| --- | --- | --- | --- | --- |
| COC1(c2cc(F)cc(OCc3cc(-c4ccc(Cl)cc4)n(-c4ccc(S(N)(=O)=O)cc4)n3)c2)CCOCC1 [Example 1, 4-[5-(4-Chlorophenyl)-3-[[3-fluoro-5-(3,4,5,6-tetrahydro-4-methoxy-2H-pyran-4-yl)phenoxy]methyl]-1H-pyrazol-1-yl]benzenesulfonamide] | < 0.1 | 38 | 0.15 | – |
| COC1(c2cccc(OCc3nc(-c4ccc(F)cc4)c(-c4ccc(S(C)(=O)=O)cc4)o3)c2)CCOCC1 [Example 2, 4-(4-Fluorophenyl)-5-(4-(methylsulfonyl)phenyl)-2-[[3-(3,4,5,6-tetrahydro-4-methoxy-2H-pyran-4-yl)phenoxy]methyl]oxazole] | 0.2 | > 10 | 0.05 | – |
| COC1(c2cc(F)cc(Oc3nc(-c4ccccc4)c(-c4ccc(S(N)(=O)=O)cc4)o3)c2)CCOCC1 [Example 4, 4-[2-[3-Fluoro-5-(4-methoxy-3,4,5,6-tetrahydro-2H-pyran-4-yl)phenoxy]-4-phenyl-5-oxazolyl]benzenesulfonamide] | < 0.1 | < 0.1 | 14 | 159 to 161 |
| COC1(c2cccc(Oc3nc(-c4ccccc4)c(-c4ccc(S(N)(=O)=O)cc4)o3)c2)CCOCC1 [Example 5, 4-[2-[3-(4-Methoxy-3,4,5,6-tetrahydro-2H-pyran-4-yl)phenoxy]-4-phenyl-5-oxazolyl]benzenesulfonamide] | < 0.1 | < 0.1 | 17 | 145 to 147 |
| COc1cccc(SCc2cc(-c3ccc(Cl)cc3)n(-c3ccc(S(N)(=O)=O)cc3)n2)c1 [Example 6, 4-[5-(4-Chlorophenyl)-3-(3-methoxyphenyl)thiomethyl-1H pyrazol-1-yl]benzenesulfonamide] | < 0.1 | 2.2 | 0.44 | – |
| COc1cccc(OCc2cc(-c3ccc(Cl)cc3)n(-c3ccc(S(N)(=O)=O)cc3)n2)c1 [Example 7, 4-[5-(4-Chlorophenyl)-3-(3-methoxyphenyl)oxymethyl-1H-pyrazol-1-yl]benzenesulfonamide] | < 0.1 | 3.8 | 0.65 | – |
| COC1(c2cc(F)cc(OCc3nc(-c4ccccc4)c(-c4ccc(S(N)(=O)=O)cc4)o3)c2)CCOCC1 [Example 8, 4-[2-[[3-Fluoro-5-(3,4,5,6-tetrahydro-4-methoxypyran-4-yl)phenoxy]methyl]-4-phenyloxazol-5-yl]benzenesulfonamide] | < 0.1 | 1.3 | 0.3 | 70 to 80 |
| COC(=O)C(Cc1cccc(C2(OC)CCOCC2)c1)c1nc(-c2ccccc2)c(-c2ccc(S(N)(=O)=O)cc2)o1 (stereo not drawn) [Example 9, Methyl 5-[4-(aminosulfonyl)phenyl]-α-[[3-(3,4,5,6-tetrahydro-4-methoxypyran-4-yl)phenyl]methyl]-4-phenyloxazole-2-acetate] | 10 | 80 | > 10 | 88.7 to 94.9 |
| COC1(c2cc(F)cc(OCC#Cc3ccc(Cc4nc(-c5ccccc5)c(-c5ccc(S(N)(=O)=O)cc5)o4)cc3)c2)CCOCC1 [Example 12, 4-[2-[[4-[3-[3-Fluoro-5-(3,4,5,6-tetrahydro-4-methoxypyran-4-yl)phenoxy]-1-propynyl]phenyl]methyl]-4-phenyloxazol-5-yl]benzenesulfonamide] | < 0.1 | > 100 | > 10 | 86 to 100 |
| COC1(c2cc(F)cc(OCc3nc(-c4ccc(F)cc4)c(-c4ccc(S(N)(=O)=O)cc4)o3)c2)CCOCC1 [Example 14, 4-[2-[[3-Fluoro-5-(3,4,5,6-tetrahydro-4-methoxypyran-4-yl)phenoxy]methyl]-4-(4-fluorophenyl)oxazol-5-yl]benzenesulfonamide] | < 0.1 | 5 | 0.2 | 70 to 72 |
| COC1(c2cc(F)cc(OCc3onc(-c4ccccc4)c3-c3ccc(S(N)(=O)=O)cc3)c2)CCOCC1 [Example 16, 4-[5-[[3-Fluoro-5-(3,4,5,6-tetrahydro-4-methoxypyran-4-yl)phenoxy]methyl]-3-phenylisoxazol-4-yl]benzenesulfonamide] | < 0.1 | > 100 | > 10 | – |
| COC1(c2cccc(COCc3nc(-c4ccccc4)c(-c4ccc(S(N)(=O)=O)cc4)o3)c2)CCOCC1 [Example 17, 4-[2-[[[3-(3,4,5,6-Tetrahydro-4-methoxypyran-4-yl)phenylmethyl]oxy]methyl]-4-phenyloxazol-5-yl]benzenesulfonamide] | 0.5 | > 100 | 9.8 | 62.1 to 71.2 |
| COC1(c2cccc(CSCc3nc(-c4ccccc4)c(-c4ccc(S(N)(=O)=O)cc4)o3)c2)CCOCC1 [Example 18, 4-[2-[[[3-(3,4,5,6-Tetrahydro-4-methoxypyran-4-yl)phenylmethyl]thio]methyl]-4-phenyloxazol-5-yl]benzenesulfonamide] | – | – | – | 77.2 to 81.7 |
| COC1(c2cc(F)cc(OCC(=O)NCCc3nc(-c4ccccc4)c(-c4ccc(S(N)(=O)=O)cc4)o3)c2)CCOCC1 [Example 22] | 1.1 | > 100 | > 10 | – |
